Results on eleven compounds are retold here after patent US8968997B2, “Benzoxazole-based fluorescent metal ion indicators” (Life Technologies Corporation, priority 2008, dated 2015).

pKd: −log10 of the molar value. “And” between values parts separate entries of the source, which are not always exact repeats. Equal entries are not always repeated.

Series [1] deals with Jurkat T-cell leukemia cultured cells. Description: Flow cytometry studies: intracellular calcium response of dye-loaded cells after stimulant. In kind it is cell-based. The settings on record: Jurkat cells loaded with 4 μM cell-permeant compound, 355 nm excitation. Here is the method:
Jurkat T-cell leukemia cultured cells were washed once with Hanks Buffered Salt Solution (HBSS) containing calcium and resuspended in HBSS at a concentration of 2×10^6/ml. A one (1) mL cell suspension was added to a 12×75 mm test tube. A cell-permeant compound (7e or 7f) was added to the cell suspension at a final concentration of 4 μM. The cell/dye mixture was mixed and placed at 37° C. protected from light for 30 minutes. The sample then was washed once with HBSS pre-warmed to 37° C. and the cell pellet was resuspended in one mL warmed HBSS. The sample rested for 15 minutes at 37° C. protected from light. […] Analysis of the data was performed using a dual parameter plot of time versus fluorescence ratio of the emissions as measured by 495/20:424/44 ratio. […] A plot of time versus fluorescence ratio for cells that have been loaded with the tested compound was collected upon addition of ionomycin or CD3 stimulant after baseline measurement. […] For Compound 7e, the ratio of the mean fluorescence as measured yielded an increase of 3.4× with ionomycin stimulation (A), an expected response which was maintained over time. The ratio of the mean fluorescence as measured gave an increase of 2.8× with CD3 stimulation (B), an expected response which decreased slightly over time. […]
For orientation: A flow cytometer gives signals particle by particle.

Series [2] is described as follows: Spectrofluorimetry studies: calcium binding constant (Kd) of ion indicators. The settings on record: 30 mM MOPS, 100 mM KCl buffers; calculated from 8-10 data points; read-out: Kd(Ca^2+). The procedure: (§1) The excitation and emission spectra of solutions of various ion indicators (concentration 1-2 μM) were recorded in 30 mM MOPS and 100 mM KCl buffers containing 0 to 200 nM free calcium ion. The binding constant values were calculated based on 8-10 data points taken in buffers covering the concentration range appropriate for the Kd value. Spectral curves for derivatives of Compound 7 (with different R substitutents) were recorded using a standard spectrofluorimeter.

A short description of series [3]: Spectrofluorimetry studies: excitation and emission spectra and ratiometric response to metal ion binding. It counts as physicochemical. The settings on record: for λabs (UV), (nm): indicator 1-2 μM in 30 mM MOPS, 100 mM KCl buffer; for λemiss (nm) / λexcit (nm): position of maxima for two ratiometric peaks, 30 mM MOPS, 100 mM KCl, 0 to 200 nM free calcium ion. The procedure:
as §1
FIGS. 1-3 show excitation and emission spectra for several of the tested compounds. […]

As usually defined, the pKd is the negative decadic logarithm of the Kd, by convention in mol/L. As to `COc1cc(N(C)C)ccc1-c1nc2cc(OCCOc3cc(C)ccc3N(CC(=O)O)CC(=O)O)c(N(CC(=O)O)CC(=O)O)cc2o1` [Compound 7f], the “increase of ratio of mean fluorescence (495/20:424/44 emission ratio) after stimulant vs baseline” value in series [1] (1 μM ionomycin stimulation) is on record as 3.2 ×. Further, the “increase of ratio of mean fluorescence (495/20:424/44 emission ratio) after stimulant vs baseline” value in series [1] (CD3 stimulation) is reported as 2.8 ×. Moreover, the pKd in series [2] was 6.99. In series [3], the “λabs (UV), (nm)” value turned out to be 363 nm; the “λemiss (nm)” value is given as 417-475 nm; the “λexcit (nm)” value was found to be 363 nm.

With `Cc1ccc(N(CC(=O)O)CC(=O)O)c(OCCOc2cc3nc(-c4ccc(N(C)C)cc4O)oc3cc2N(CC(=O)O)CC(=O)O)c1` [Compound 7g], the pKd in series [2] was 7.07. In series [3], the “λabs (UV), (nm)” value stood at 363 nm; the “λemiss (nm)” value was 417-496 nm; the “λexcit (nm)” value is reported as 363 nm.

With `Cc1ccc(N(CC(=O)O)CC(=O)O)c(OCCOc2cc3nc(-c4cc5c6c(c4)CCCN6CCC5)oc3cc2N(CC(=O)O)CC(=O)O)c1` [Compound 7h], the pKd in series [2] was 6.84. In series [3], the “λabs (UV), (nm)” value is 375 nm; the “λemiss (nm)” value is on record as 435-510 nm; the “λexcit (nm)” value is recorded as 375 nm.

In the case of `Cc1ccc(N(CC(=O)O)CC(=O)O)c(OCCOc2cc3nc(-c4nc5ccccc5s4)oc3cc2N(CC(=O)O)CC(=O)O)c1` [Compound 7i], the pKd in series [2] is 6.51. Moreover, in series [3], the “λabs (UV), (nm)” value turned out to be 364 nm; the “λemiss (nm)” value stood at 569 nm; the “λexcit (nm)” value is recorded as 361-422 nm.

Take `Cc1ccc(N(CC(=O)O)CC(=O)O)c(OCCOc2cc3nc(-c4cccc(=O)[nH]4)oc3cc2N(CC(=O)O)CC(=O)O)c1` [Compound 7j]: in series [2], the pKd is 6.84. Also, in series [3], the “λabs (UV), (nm)” value was determined as 366 nm; the “λemiss (nm)” value worked out at 567 nm; the “λexcit (nm)” value was 349-392 nm.

Consider `Cc1ccc(N(CC(=O)O)CC(=O)O)c(OCCOc2cc3nc(-c4cc[n+]([O-])cc4)oc3cc2N(CC(=O)O)CC(=O)O)c1` [Compound 7k], for which the negative logarithm of the Kd (pKd) in series [2] was 6.52. Also, in series [3], the “λabs (UV), (nm)” value came to 357 nm; the “λemiss (nm)” value is 612 nm; the “λexcit (nm)” value is 356-425 nm.

On to `Cc1ccc(N(CC(=O)O)CC(=O)O)c(OCCOc2cc3nc(-c4ccc5nonc5c4)oc3cc2N(CC(=O)O)CC(=O)O)c1` [Compound 7l], for which the negative-log Kd (pKd) in series [2] is 6.80. In series [3], the “λabs (UV), (nm)” value was 330 nm and 440 (non- nm; the “λemiss (nm)” value is listed as 490 nm; the “λexcit (nm)” value is given as 324-364 nm.

With `Cc1ccc(N(CC(=O)O)CC(=O)O)c(OCCOc2cc3nc(/C=C/c4ccc(N(C)C)c5ccccc45)oc3cc2N(CC(=O)O)CC(=O)O)c1` [Compound 7p], the negative-log Kd (pKd) in series [2] is 6.54. For the same compound, in series [3], the “λabs (UV), (nm)” value came to 392 nm; the “λemiss (nm)” value is 586 nm; the “λexcit (nm)” value was found to be 392 nm.

Turning to `Cc1ccc(N(CC(=O)O)CC(=O)O)c(OCCOc2cc3nc(/C=C/c4cc5c6c(c4)CCCN6CCC5)oc3cc2N(CC(=O)O)CC(=O)O)c1` [Compound 7q], in series [2], the negative-log Kd (pKd) is 7.10. Besides, in series [3], the “λabs (UV), (nm)” value amounted to 413 nm; the “λemiss (nm)” value is on record as 548 nm; the “λexcit (nm)” value amounted to 413 nm.

With `Cc1ccc(N(CC(=O)O)CC(=O)O)c(OCCOc2cc3nc(-c4ccc5cc(N(C)C)ccc5c4)oc3cc2N(CC(=O)O)CC(=O)O)c1` [Compound 7r], the negative logarithm of the Kd (pKd) in series [2] is 6.89. In addition, in series [3], the “λabs (UV), (nm)” value came to 373 nm; the “λemiss (nm)” value is on record as 496 nm; the “λexcit (nm)” value worked out at 373 nm.

For `Cc1ccc(N(CC(=O)O)CC(=O)O)c(OCCOc2cc3nc(-c4cc5cc6c7c(c5oc4=O)CCCN7CCC6)oc3cc2N(CC(=O)O)CC(=O)O)c1` [Compound 7t], the pKd in series [2] was 6.81. Moreover, in series [3], the “λabs (UV), (nm)” value worked out at 472 nm; the “λemiss (nm)” value came out at 520 nm; the “λexcit (nm)” value is given as 472 nm.
